In patent publication US20230278972A1, “SUBSTITUTED HALOALKYL SULFONANILIDE HERBICIDES” (FMC Corporation, priority 2020, published 2023):

What was measured:
Type in all cases: in vivo
[1] = tested on: blackgrass (Alopecurus myosuroides); test: Test A postemergence, blackgrass; conditions: Postemergence, 0 to 100 scale (0 no effect, 100 complete control); for Plant response rating, Blackgrass: 125 g ai/ha, visual injury approx. 10 days; for Blackgrass plant response rating: 500 g ai/ha, visual injury vs untreated controls after approx. 10 days
How it was run: (§1)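 Directed soil spray at planting gave the preemergence treatment, while foliar application to one- to two-leaf seedlings (2–10 cm) gave the postemergence one; pots held a loam and sand mixture and chemicals were carried in a non-phytotoxic solvent with surfactant.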

[2] = tested on: barnyardgrass (Echinochloa crus-galli); test: Test A preemergence, barnyardgrass; conditions: Preemergence; for Barnyardgrass plant response rating: 125 g ai/ha, visual injury on 0 to 100 scale (0 no effect, 100 complete control), approximately 10 days; for Plant response rating, Barnyardgrass: 500 g ai/ha, 0 to 100 scale (0 no effect, 100 complete control)
How it was run: as §1

[3] = tested on: barnyardgrass (Echinochloa crus-galli); test: Test A postemergence, barnyardgrass; conditions: Postemergence, 0 to 100 scale (0 no effect, 100 complete control); for Plant response rating, Barnyardgrass: 125 g ai/ha, visual injury approx. 10 days; for Barnyardgrass plant response rating: 500 g ai/ha, visual injury vs untreated controls after approx. 10 days
How it was run: as §1

corn (Zea mays) = test: Test A postemergence, corn; conditions: Postemergence, 0 to 100 scale (0 no effect, 100 complete control); for Plant response rating, Corn: 125 g ai/ha, visual injury approx. 10 days; for Corn plant response rating: 500 g ai/ha, visual injury vs untreated controls after approx. 10 days
How it was run: as §1

[4] = tested on: Foxtail, Giant (giant foxtail, Setaria faberi); test: Test A preemergence, Foxtail, Giant; conditions: Preemergence; for Foxtail, Giant plant response rating: 125 g ai/ha, visual injury on 0 to 100 scale (0 no effect, 100 complete control), approximately 10 days; for Plant response rating, Foxtail, Giant: 500 g ai/ha, 0 to 100 scale (0 no effect, 100 complete control)
How it was run: as §1

[5] = tested on: pigweed (Amaranthus retroflexus); test: Test A preemergence, pigweed; conditions: for Pigweed plant response rating: 125 g ai/ha, visual injury on 0 to 100 scale (0 no effect, 100 complete control), approximately 10 days; for Plant response rating, Pigweed: 500 g ai/ha, 0 to 100 scale (0 no effect, 100 complete control)
How it was run: as §1

[6] = tested on: pigweed (Amaranthus retroflexus); test: Test A postemergence, pigweed; conditions: Postemergence, 0 to 100 scale (0 no effect, 100 complete control); for Plant response rating, Pigweed: 125 g ai/ha, visual injury approx. 10 days; for Pigweed plant response rating: 500 g ai/ha, visual injury vs untreated controls after approx. 10 days
How it was run: as §1

[7] = tested on: wheat (Triticum aestivum); test: Test A postemergence, wheat; conditions: Postemergence, 0 to 100 scale (0 no effect, 100 complete control); for Plant response rating, Wheat: 125 g ai/ha, visual injury approx. 10 days; for Wheat plant response rating: 500 g ai/ha, visual injury vs untreated controls after approx. 10 days
How it was run: as §1

[8] = tested on: Foxtail, Giant (giant foxtail, Setaria faberi); test: Test A postemergence, Foxtail, Giant; conditions: Postemergence, 0 to 100 scale (0 no effect, 100 complete control); for Plant response rating, Foxtail, Giant: 125 g ai/ha, visual injury approx. 10 days; for Foxtail, Giant plant response rating: 500 g ai/ha, visual injury vs untreated controls after approx. 10 days
How it was run: as §1

[9] = tested on: ragweed (common ragweed, Ambrosia artemisiifolia); test: Test A postemergence, ragweed; conditions: Postemergence, 0 to 100 scale (0 no effect, 100 complete control); for Plant response rating, Ragweed: 125 g ai/ha, visual injury approx. 10 days; for Ragweed plant response rating: 500 g ai/ha, visual injury vs untreated controls after approx. 10 days
How it was run: as §1

[10] = tested on: Ryegrass, Italian (Italian ryegrass, Lolium multiflorum); test: Test A preemergence, Ryegrass, Italian; conditions: Preemergence; for Ryegrass, Italian plant response rating: 125 g ai/ha, visual injury on 0 to 100 scale (0 no effect, 100 complete control), approximately 10 days; for Plant response rating, Ryegrass, Italian: 500 g ai/ha, 0 to 100 scale (0 no effect, 100 complete control)
How it was run: as §1

kochia (Bassia scoparia) [11] = test: Test A postemergence, kochia; conditions: Postemergence, 0 to 100 scale (0 no effect, 100 complete control); for Plant response rating, Kochia: 125 g ai/ha, visual injury approx. 10 days; for Kochia plant response rating: 500 g ai/ha, visual injury vs untreated controls after approx. 10 days
How it was run: as §1

[12] = tested on: galium (catchweed bedstraw, Galium aparine); test: Test A postemergence, galium; conditions: Postemergence, 0 to 100 scale (0 no effect, 100 complete control); for Plant response rating, Galium: 125 g ai/ha, visual injury approx. 10 days; for Galium plant response rating: 500 g ai/ha, visual injury vs untreated controls after approx. 10 days
How it was run: as §1

[13] = tested on: Ryegrass, Italian (Italian ryegrass, Lolium multiflorum); test: Test A postemergence, Ryegrass, Italian; conditions: Postemergence, 0 to 100 scale (0 no effect, 100 complete control); for Plant response rating, Ryegrass, Italian: 125 g ai/ha, visual injury approx. 10 days; for Ryegrass, Italian plant response rating: 500 g ai/ha, visual injury vs untreated controls after approx. 10 days
How it was run: as §1

kochia (Bassia scoparia) [14] = test: Test A preemergence, kochia; conditions: Preemergence; for Kochia plant response rating: 125 g ai/ha, visual injury on 0 to 100 scale (0 no effect, 100 complete control), approximately 10 days; for Plant response rating, Kochia: 500 g ai/ha, 0 to 100 scale (0 no effect, 100 complete control)
How it was run: as §1

[15] = tested on: ragweed (common ragweed, Ambrosia artemisiifolia); test: Test A preemergence, ragweed; conditions: Preemergence; for Ragweed plant response rating: 125 g ai/ha, visual injury on 0 to 100 scale (0 no effect, 100 complete control), approximately 10 days; for Plant response rating, Ragweed: 500 g ai/ha, 0 to 100 scale (0 no effect, 100 complete control)
How it was run: as §1

SMILES	Plant response rating, Blackgrass [1]	Blackgrass plant response rating [1]	Barnyardgrass plant response rating [2]	Plant response rating, Barnyardgrass [2]	Plant response rating, Barnyardgrass [3]	Barnyardgrass plant response rating [3]	Plant response rating, Corn (corn (Zea mays))	Corn plant response rating (corn (Zea mays))	Foxtail, Giant plant response rating [4]	Plant response rating, Foxtail, Giant [4]	Pigweed plant response rating [5]	Plant response rating, Pigweed [5]	Plant response rating, Pigweed [6]	Pigweed plant response rating [6]	Plant response rating, Wheat [7]	Wheat plant response rating [7]	Plant response rating, Foxtail, Giant [8]	Foxtail, Giant plant response rating [8]	Plant response rating, Ragweed [9]	Ragweed plant response rating [9]	other results
CCn1nccc(-c2cc(NS(=O)(=O)C(F)(F)F)c(C)cc2F)c1=O [Compound 55]	0	20	0	100	30	40	0	50	60	100	70	90	20	70	20	70	20	90	20	40	Ryegrass, Italian plant response rating [10]: 70; Plant response rating, Ryegrass, Italian [10]: 90; Plant response rating, Kochia (kochia (Bassia scoparia) [11]): 60; Kochia plant response rating (kochia (Bassia scoparia) [11]): 80; Plant response rating, Galium [12]: 90; Galium plant response rating [12]: 90; Plant response rating, Ryegrass, Italian [13]: 50; Ryegrass, Italian plant response rating [13]: 60; Kochia plant response rating (kochia (Bassia scoparia) [14]): 80; Plant response rating, Kochia (kochia (Bassia scoparia) [14]): 80; Ragweed plant response rating [15]: 20; Plant response rating, Ragweed [15]: 90
CC(=O)N(c1cc(-c2ccnn(C)c2=O)c(C)cc1C)S(=O)(=O)C(F)(F)F [Compound 56]	50	50	100	100	90	90	10	80	0	20	40	90	40	40	50	70	90	90	60	90	Ryegrass, Italian plant response rating [10]: 100; Plant response rating, Ryegrass, Italian [10]: 100; Plant response rating, Kochia (kochia (Bassia scoparia) [11]): 50; Kochia plant response rating (kochia (Bassia scoparia) [11]): 60; Plant response rating, Galium [12]: 90; Galium plant response rating [12]: 90; Plant response rating, Ryegrass, Italian [13]: 0; Ryegrass, Italian plant response rating [13]: 80; Kochia plant response rating (kochia (Bassia scoparia) [14]): 40; Plant response rating, Kochia (kochia (Bassia scoparia) [14]): 100; Ragweed plant response rating [15]: 70; Plant response rating, Ragweed [15]: 90
Cc1cc(C)c(-c2ccnn(CC(F)(F)F)c2=O)cc1NS(=O)(=O)C(F)(F)F [Compound 57]	0	70	100	100	40	90	30	80	100	100	50	80	0	50	60	70	30	90	0	30	Ryegrass, Italian plant response rating [10]: 90; Plant response rating, Ryegrass, Italian [10]: 90; Plant response rating, Kochia (kochia (Bassia scoparia) [11]): 0; Kochia plant response rating (kochia (Bassia scoparia) [11]): 20; Plant response rating, Galium [12]: 80; Galium plant response rating [12]: 90; Plant response rating, Ryegrass, Italian [13]: 30; Ryegrass, Italian plant response rating [13]: 90; Kochia plant response rating (kochia (Bassia scoparia) [14]): 60; Plant response rating, Kochia (kochia (Bassia scoparia) [14]): 60; Ragweed plant response rating [15]: 40; Plant response rating, Ragweed [15]: 70
CCCn1nccc(-c2cc(NS(=O)(=O)C(F)(F)F)c(C)cc2C)c1=O [Compound 58]	0	30	100	100	20	90	20	50	100	100	0	50	0	0	20	70	30	90	0	20	Ryegrass, Italian plant response rating [10]: 70; Plant response rating, Ryegrass, Italian [10]: 100; Plant response rating, Kochia (kochia (Bassia scoparia) [11]): 0; Kochia plant response rating (kochia (Bassia scoparia) [11]): 20; Plant response rating, Galium [12]: 80; Galium plant response rating [12]: 90; Plant response rating, Ryegrass, Italian [13]: 0; Ryegrass, Italian plant response rating [13]: 60; Kochia plant response rating (kochia (Bassia scoparia) [14]): 0; Plant response rating, Kochia (kochia (Bassia scoparia) [14]): 80; Ragweed plant response rating [15]: 0; Plant response rating, Ragweed [15]: 0
Cc1ccc(-c2ccnn(C)c2=O)cc1NS(=O)(=O)C(F)(F)F [Compound 59]	0	70	0	90	0	80	10	40	20	70	30	60	0	60	0	40	10	70	20	60	Ryegrass, Italian plant response rating [10]: 0; Plant response rating, Ryegrass, Italian [10]: 60; Plant response rating, Kochia (kochia (Bassia scoparia) [11]): 50; Kochia plant response rating (kochia (Bassia scoparia) [11]): 70; Plant response rating, Galium [12]: 80; Galium plant response rating [12]: 90; Plant response rating, Ryegrass, Italian [13]: 0; Ryegrass, Italian plant response rating [13]: 60; Kochia plant response rating (kochia (Bassia scoparia) [14]): 40; Plant response rating, Kochia (kochia (Bassia scoparia) [14]): 90; Ragweed plant response rating [15]: 0; Plant response rating, Ragweed [15]: 30
